Source: patent US7713934B2, “Thrombin peptide derivatives” (The Board of Regents, The University of Texas System, priority 2002, dated 2010)

How the values were obtained:
thrombin receptors = experiment: Peptide competition for [125I]-alpha-thrombin binding to ME cells; settings: for Concentration Required for 30% Inhibition: [125I]-alpha-thrombin binding to ME cells; for fold higher concentration than p508-530 required for 30% inhibition of [125I]-alpha-thrombin binding: relative to p508-530
Source text: Thrombin peptide derivatives are believed to activate cells by binding to a high-affinity cell-surface thrombin receptor known as the non-proteolytically-activated thrombin receptor (hereinafter “NPAR”) (R. Horvat, et. al., J. Cell Sci. 108, 1155-1164 1995). Compounds which stimulate NPAR are said to be thrombin receptor agonists. NPAR activation can be assayed based on the ability of molecules to stimulate cell proliferation when added to fibroblasts in the presence of submitogenic concentrations of thrombin or molecules that activate protein kinase C or compete with ^125I-thrombin for high affinity binding17 to thrombin receptors, as disclosed in U.S. Pat. Nos. 5,352,664 and 5,500,412 and in Glenn et al., J. Peptide Research 1:65 (1988).
To further identify regions of thrombin involved in high-affinity binding and generation of mitogenic signals, two peptides representing specific domains within p508-530 were tested. The first peptide represented residues 519 to 530 of the B-chain region of human prothrombin, a region of thrombin that is highly conserved among serine proteases. The second peptide represented residues 517 to 520 of prothrombin, a region of thrombin homologous to the fibronectin cell binding domain.
Because p517-520 is homologous to the fibronectin cell binding domain, a peptide having the sequence Arg-Gly-[…]-Ser (SEQ ID NO:18; the sequence of the fibronectin specific peptide) was also tested for its ability to compete for [^125I]-alpha-thrombin binding.

NIL cells = settings: increasing concentrations, quiescent NIL cells, 2 and 4 nM alpha-thrombin; FIG. 6 of U.S. Pat. No. 5,500,412; cited from earlier work
[1] = Dimer formation / stability in saline solution by HPLC; assay type: physicochemical; settings: 5 mg/mL, 4° C.
Source text: Over a time period of 6 months, triplicate samples were taken at intervals from the solution.
The area percent of each HPLC peak was plotted in FIG. 3. The peak area percent corresponds directly to the percent of material in solution.
Over a time period of 1 month, triplicate samples were taken at intervals from the solution. […] The area percent of each HPLC peak was plotted in FIG. 4. The peak area percent corresponds directly to the percent of material in solution.
Over a time period of 1 month, triplicate samples were taken at intervals from the solution. […] The area percent of each HPLC peak was plotted in FIG. 5. The peak area percent corresponds directly to the percent of material in solution.

[2] = system: full-thickness, 2 cm-diameter excisions on the dorsum; experiment: Wound closure, full-thickness excisions in rats (Example 1, TP508-Ala); assay type: in vivo, male Sprague-Dawley rats; settings: for wound area smaller than controls: 0.1 μg per wound, topical; for wound healing activity compared with TP508: Example 1, 0.1 μg per wound
Procedure: (§1) Two, full-thickness, 2 cm-diameter excisions were created on the dorsum of male Sprague-Dawley rats. […] Wound size was determined on post-wounding days 3, 7, and 10 by tracing the perimeter of the wound onto an acetate sheet and using digital analysis to compute the surface area of each wound.
Each group contained 6 rats.
(§2) Saline was used as the vehicle for the experiment. […] The working solution was maintained on ice throughout the experiment.
(§3) The working solution was maintained on ice throughout the experiment.
(§4) On post-wounding days 3, 7, and 10, the wounds were evaluated by tracing the wound perimeter onto a flexible acetate sheet, then determining wound area with digital analysis software.
Each data point represents the mean and standard error of the mean of 12 wounds from 6 rats. Statistical comparisons between groups were made using a repeated measures analysis of variance; Fisher's LSD was used for post hoc testing between groups.

[3] = system: full-thickness, 2 cm-diameter excisions on the dorsum; experiment: Wound closure, full-thickness excisions in rats (Example 2, TP508-Ser); assay type: in vivo, male Sprague-Dawley rats; settings: for wound area reduced: 0.1 μg per wound, topical; for wound healing activity compared with TP508: Example 2, 0.1 μg per wound
Procedure: as §1
Each group contained 8 rats.
as §2, §3, §4
Each data point represents the mean and standard error of the mean of 16 wounds from 8 rats. Statistical comparisons between groups were made using a repeated measures analysis of variance; Fisher's LSD was used for post hoc testing between groups.

## DACEGDSGGPFV (Thrombin Peptide Derivative) [p519-530]
Thrombin receptors
  Concentration Required for 30% Inhibition: 200 nM
  fold higher concentration than p508-530 required for 30% inhibition of [125I]-alpha-thrombin binding: 33 fold
Thrombin receptors; at 800 nM, ME cells
  Maximal % Inhibition: 51%
NIL cells
  effect on DNA synthesis: enhanced DNA synthesis

## H-Ala-Gly-Tyr-Lys-Pro-Asp-Glu-Gly-Lys-Arg -Gly-Asp-Ala-Ala-Glu-Gly-Asp-Ser-Gly-Gly-Pro-Phe-Val-NH2 (H-AGYKPDEGKRGDAAEGDSGGPFV-NH2) [TP508-Ala]
[1]; 1 month
  HPLC peak area of monomer / peptide over time: no decrease over time
  conversion to dimer: does not convert to dimer
[1]; 6 months
  conversion to dimer: no dimerization
[2]; post-wounding Day 7
  wound area smaller than controls: 18.7%
[2]; post-wounding Day 10
  wound area smaller than controls: 25.1%
[2]
  wound healing activity compared with TP508: equivalent to TP508 in efficacy and potency
[2]; listed as TP508 Cys→Ala
  wound healing activity compared with TP508: about the same level of activity toward the thrombin receptor as TP508

## H-Ala-Gly-Tyr-Lys-Pro-Asp-Glu-Gly -Lys-Arg-Gly-Asp-Ala-Ser-Glu-Gly-Asp-Ser-Gly-Gly-Pro-Phe-Val-NH2 (H-AGYKPDEGKRGDASEGDSGGPFV-NH2) [TP508-Ser]
[3]; post-wounding Day 7
  wound area reduced: 18.2%
[3]; post-wounding Day 10
  wound area reduced: 43.3%
[3]
  wound healing activity compared with TP508: equivalent to TP508 in efficacy and potency
[3]; listed as TP508 Cys→Ser
  wound healing activity compared with TP508: about the same level of activity toward the thrombin receptor as TP508

## RGDA (Thrombin Peptide) [p517-520]
Thrombin receptors
  Concentration Required for 30% Inhibition: 300 nM
  fold higher concentration than p508-530 required for 30% inhibition of [125I]-alpha-thrombin binding: 50 fold
NIL cells
  effect on DNA synthesis: inhibited DNA synthesis

## Arg-Gly-Ala-Ser (RGAS; Fibronectin Specific Peptide)
Thrombin receptors; at a concentration of 1.3 μM
  competition with [125I]-alpha-thrombin for binding: did not compete
